From patent US11766468B2, “Method of treating prostate cancer with GnRH antagonist” (priority 2012, dated 2023)
Marks after values point to notes of the source that are not given here. Square brackets hold non-standard residues; d marks the D form. Peptide text beside a SMILES is read from it. * marks the point of attachment. dPhe(4-NHCONH2) = NC(=O)Nc1ccc(C[C@@H](N)C(=O)O)cc1; Dihydroorotyl(S) = O=C1C[C@@H](C(=O)*)NC(=O)N1; dPhe(4-Cl) = N[C@H](Cc1ccc(Cl)cc1)C(=O)O; Phe(4-NH2) = Nc1ccc(C[C@H](N)C(=O)O)cc1; d2Nal = N[C@H](Cc1ccc2ccccc2c1)C(=O)O; Lys(iPr) = CC(C)NCCCC[C@H](N)C(=O)O; d3Pal = N[C@H](Cc1cccnc1)C(=O)O

Experiment: CS21 safety: treatment-emergent adverse events (MedDRA SOC/PT), crude incidence, also by subgroup
Assay type: in vivo
Procedure: The safety variables for this study were assessed on the following: the frequency and severity of adverse events (AEs); the presence of clinically significant changes in laboratory parameters (clinical chemistry, hematology and urinalysis); changes in electrocardiograms (ECGs) and vital signs; changes detected by physical examination; and body weight.
An AE was therefore any unfavorable or unintended sign (including an abnormal laboratory finding), symptom or disease temporally associated with the use of the product, whether or not related to the IMP.
An adverse drug reaction (ADR) was defined as an AE evaluated by the investigator as being probably or possibly related to treatment with the IMP.
AEs were graded according to the National Cancer Institute (NCI) Common Terminology Criteria for Adverse Events (CTCAE). In accordance with the CTCAE criteria, AEs were rated on a five-point scale corresponding to mild, moderate, severe, life-threatening or disabling and death. For those AEs not described in the CTCAE, a separate five-point rating scale was used for rating of the intensity of AEs as follows below:
Safety parameters were evaluated for all patients included in the ITT analysis set, comprising all 610 randomized patients who received at least one dose of study medication. All safety tables include four columns: the three treatment groups described separately, and the pooled degarelix group.
Adverse events were regarded as ‘treatment-emergent’ if they occurred in the time interval from initial dosing to end-of-study. Adverse events were considered ‘pre-treatment’ if they occurred between screening and the initial injections of IMP. As described above, all AEs were classified according to MedDRA (version 10.0) system organ class (SOC), sorted alphabetically, and by preferred term (PT), in decreasing frequency of occurrence. Treatment-emergent AEs were expressed in terms of intensity (using NCI CTCAE) and relationship to study drug.
Using the results from the summary of clinical efficacy (SCE) and summary of clinical safety (SCS) findings, different patient subgroups were analyzed. Subgroup distinguishers included race (white, black, and other), age (<65 years, […], and >75 years), weight (<70 kg, ≥70−<90 kg, and ≥90 kg), body mass index (BMI) (≤20, >20 to 30, and >30 kg/m^2)), region (North-America, Western Europe, Central and Eastern Europe and Other), and stage of prostate cancer (e.g., localized, locally advanced, and metastatic).

[1] = PCA = Localised, pooled degarelix
[2] = PCA = Locally advanced, pooled degarelix
[3] = PCA = Metastatic, pooled degarelix
[4] = Weight 70-<90 kg, pooled degarelix
[5] = Weight <70 kg, pooled degarelix
[6] = Weight >=90 kg, pooled degarelix
[7] = degarelix 240/80 mg, listed as degarelix

## CC(=O)N[C@H](Cc1ccc2ccccc2c1)C(=O)N[C@H](Cc1ccc(Cl)cc1)C(=O)N[C@H](Cc1cccnc1)C(=O)N[C@@H](CO)C(=O)N[C@@H](Cc1ccc(NC(=O)[C@@H]2CC(=O)NC(=O)N2)cc1)C(=O)N[C@H](Cc1ccc(NC(N)=O)cc1)C(=O)N[C@@H](CC(C)C)C(=O)N[C@@H](CCCCNC(C)C)C(=O)N1CCC[C@H]1C(=O)N[C@H](C)C(N)=O [Degarelix, D-Alaninamide, N-acetyl-3-(2-naphthalenyl)-D-alanyl-4-chloro-D-phenylalanyl-3-(3-pyridinyl)-D-alanyl-L-seryl-4-[[[(4S)-hexahydro-2,6-dioxo-4-pyrimidinyl]carbonyl]amino]-L phenylalanyl-4-[(aminocarbonyl)amino]-D-phenylalanyl-L leucyl-N6-(1-methylethyl)-L-lysyl-L-prolyl] (Ac-[d2Nal][dPhe(4-Cl)][d3Pal]S[Phe(4-NH2)](Dihydroorotyl(S))[dPhe(4-NHCONH2)]L[Lys(iPr)]P[dA]-NH2)
Age <65, pooled degarelix
  Gastrointestinal disorders, % of patients: (9%)*
  Infections and infestations, % of patients: (16%)
  Musculoskeletal and connective tissue disorders, % of patients: (9%)**
  Renal and urinary disorders, % of patients: (10%)*
  Subjects with adverse events, %: (75%)
  Urinary retention, % of patients: (1%)*
[1]
  Depression, % of patients: (<1%)*
  Erectile dysfunction, % of patients: (<1%)*
  Gynaecomastia, % of patients: (<1%)
  Infections and infestations, % of patients: (17%)
  Musculoskeletal and connective tissue disorders, % of patients: (16%)
  Neoplasms benign, malignant and unspecified, % of patients: (3%)
  Oedema peripheral, % of patients: (2%)*
  Psychiatric disorders, % of patients: (9%)
  Reproductive system and breast disorders, % of patients: (4%)
  Subjects with adverse events, %: (81%)
  Upper respiratory tract infection, % of patients: (3%)
  Urinary tract infection, % of patients: (2%)*
[2]
  Arthralgia, % of patients: (2%)**
  Back pain, % of patients: ( 5%)
  Cardiac disorders, % of patients: (3%)
  Diarrhoea, % of patients: (<1%)*
  Dyspnoea, N patients: 0
  Fall, % of patients: (<1%)
  Gastrointestinal disorders, % of patients: (13%)
  Infections and infestations, % of patients: (13%)
  Injury, poisoning and procedural complications, % of patients: (2%)**
  Muscle strain, % of patients: (<1%)
  Musculoskeletal and connective tissue disorders, % of patients: (10%)
  Respiratory, thoracic and mediastinal disorders, % of patients: ( 7%)
  Subjects with adverse events, %: (74%)
  Urinary tract infection, % of patients: (<1%)**
[3]
  Arthralgia, % of patients: ( 5%)
  Back pain, % of patients: ( 5%)
  Gastrointestinal disorders, % of patients: (15%)
  Musculoskeletal and connective tissue disorders, % of patients: (21%)
  Pain in extremity, % of patients: ( 1%)
  Subjects with adverse events, %: (81%)
Race = Other, pooled degarelix
  Erectile dysfunction, % of patients: (2%)*
  Infections and infestations, % of patients: (33%)
  Reproductive system and breast disorders, % of patients: (10%)
  Subjects with adverse events, %: (95%)
  Urinary tract infection, % of patients: (5%)*
Race = White, pooled degarelix
  Cardiac disorders, % of patients: (10%)
  Chest pain, % of patients: (<1%)*
  Cystitis noninfective, N patients: 0
  Deep vein thrombosis, N patients: 0
  Infections and infestations, % of patients: (19%)
  Investigations, % of patients: (26%)
  Musculoskeletal and connective tissue disorders, % of patients: (15%)**
  Musculoskeletal stiffness, N patients: 0
  Myocardial ischaemia, % of patients: (<1%)*
  Oedema peripheral, % of patients: (1%)*
  Orthostatic hypotension, N patients: 0
  Renal and urinary disorders, % of patients: (14%)
  Subjects with adverse events, %: (79%)
  Upper respiratory tract infection, % of patients: (<1%)*
  Urinary retention, % of patients: ( 1%)*
  Vascular disorders, % of patients: (31%)
[4]
  Cardiac disorders, % of patients: ( 5%)*
  Erectile dysfunction, % of patients: (<1%)*
  Nervous system disorders, % of patients: (12%)
  Reproductive system and breast disorders, % of patients: ( 5%)
  Subjects with adverse events, %: (81%)
[5]
  Arthralgia, % of patients: ( 3%)**
  Musculoskeletal and connective tissue disorders, % of patients: (17%)*
  Pelvic pain, N patients: 0
  Reproductive system and breast disorders, % of patients: (4%)*
  Subjects with adverse events, %: (78%)
[6]
  Arthralgia, % of patients: ( 5%)
  Back pain, % of patients: ( 5%)*
  Infections and infestations, % of patients: (26%)
  Musculoskeletal and connective tissue disorders, % of patients: (15%)*
  Neoplasms benign, malignant and unspecified, % of patients: (1%)*
  Subjects with adverse events, %: (84%)
  Urinary tract infection, % of patients: ( 3%)*
Degarelix 240/80 mg
  ADRs, % of patients: 57%
  ADRs, E events: 459
  ADRs, N patients: 118
  AEs leading to discontinuation, % of patients: 7%
  AEs leading to discontinuation, E events: 15
  AEs leading to discontinuation, N patients: 15
  Alanine aminotransferase increased, % of patients: (10%)
  All AEs, E = number of adverse events: 937
  All AEs, N = number of patients: 163
  Arthralgia, % of patients: ( 5%)
  Aspartate aminotransferase increased, % of patients: ( 5%)
  Back pain, % of patients: ( 6%)
  Blood & lymphatic system disorders, % of patients: ( 2%)
  Cardiac disorders, % of patients: ( 8%)
  Chills, % of patients: ( 5%)
  Constipation, % of patients: ( 5%)
  Deaths (Grade 5), % of patients: 2%
  Deaths (Grade 5), E events: 5
  Deaths (Grade 5), N patients: 5
  Ear & labyrinth disorders, % of patients: ( 3%)
  Endocrine disorders, % of patients: (<1%)
  Eye disorders, % of patients: ( 3%)
  Fatigue, % of patients: ( 3%)
  Gastrointestinal disorders, % of patients: (18%)
  General disorders & administration site conditions, % of patients: (44%)
  Hepatobiliary disorders, % of patients: (<1%)
  Hot flush, % of patients: (26%)
  Hypercholesterolaemia, % of patients: ( 3%)
  Hypertension, % of patients: ( 6%)
  Immune system disorders, % of patients: (<1%)
  Infections & infestations, % of patients: (22%)
  Injection site erythema, % of patients: (17%)
  Injection site induration, % of patients: ( 4%)
  Injection site nodule, % of patients: ( 3%)
  Injection site pain, % of patients: (28%)
  Injection site swelling, % of patients: ( 6%)
  Injury, poisoning & procedural complications, % of patients: ( 5%)
  Investigations, % of patients: (26%)
  Metabolism & nutrition disorders, % of patients: ( 7%)
  Musculoskeletal & connective tissue disorders, % of patients: (15%)
  Nausea, % of patients: ( 4%)
  Neoplasms benign, malignant & unspecified, % of patients: ( 5%)
  Nervous system disorders, % of patients: (12%)
  Psychiatric disorders, % of patients: ( 8%)
  Renal & urinary disorders, % of patients: (14%)
  Reproductive system & breast disorders, % of patients: ( 4%)
  Respiratory, thoracic & mediastinal disorders, % of patients: (12%)
  Serious AEs, % of patients: 10%
  Serious AEs, E events: 26
  Serious AEs, N patients: 21
  Skin & subcutaneous tissue disorders, % of patients: ( 9%)
  Urinary tract infection, % of patients: ( 5%)
  Vascular disorders, % of patients: (34%)
  Weight increased, % of patients: ( 9%)
Degarelix 240/80 mg s.c., leuprolide 7.5 mg i.m.
  Injection site adverse events, % of subjects: 35%
Degarelix 240/80 mg, leuprolide 7.5 mg
  ADRs excluding injection site reactions, % of patients: 43%
[7]
  Arthralgia, % of patients: 5%
  Back pain, % of patients: 6%
  Chills, % of patients: 5%
  Constipation, % of patients: 5%
  Fatigue, % of patients: 3%
  Hot flush, % of patients: 26%
  Hypertension, % of patients: 6%
  Injection site erythema, % of patients: 17%
  Injection site induration, % of patients: 4%
  Injection site nodule, % of patients: 3%
  Injection site pain, % of patients: 28%
  Injection site swelling, % of patients: 6%
  Musculoskeletal & connective tissue disorders, % of patients: 15%
  Treatment-emergent adverse events (all AEs), % of patients: 79%
  Urinary tract infection, % of patients: 5%
  Weight increased, % of patients: 9%
Degarelix 240/160 mg
  ADRs excluding injection site reactions, % of patients: 44%
  ADRs, % of patients: 59%
  ADRs, E events: 463
  ADRs, N patients: 120
